Laboratory results: patent US20250214967A1, “FAK DEGRADERS, PHARMACEUTICAL COMPOSITIONS, AND THERAPEUTIC APPLICATIONS” (Berrybio (Shanghai) Limited, priority 2022, published 2025)

Biological target: FAK (Homo sapiens (Human), UniProt Q05397)
Assay: FAK Degradation Assay (Western blot, FAK/GAPDH)
Type: cell-based
Conditions: MDA-MB-231 cells, 24 h treatment, Western blot normalized to DMSO; for DC50: read-out: DC50 (half-maximal degradation concentration), FAK Degradation; for Dmax: read-out: Dmax (maximal degradation), FAK Degradation
Description: H2122 (4×10^5), MIA PaCa-2 (6×10s), or MDA-MB-231 cells (6×10^5) per well were seeded into a 6-well plate containing 2 mL of complete culture medium (RPMI-1640 for H2122 and MDA-MB-231, and DMEM/F12 for MIA PaCa-2, supplemented with 10% FBS and 1% penicillin/streptomycin). The cells were cultured overnight at 37° C. in the presence of 5% C02 before treated with a compound in a series of concentrations for 24 h. The cells were then washed with ice-cold Dulbecco's phosphate-buffered saline (DPBS). A radioimmuno-precipitation assay (RIPA) buffer was added to lyse the cells on ice for 20 min. The cells were then scrapped using cell scraper and collected in a 1.5 mL tube, which was centrifuged at 14,000 g and 4° C. for 15 min. The supernatant was collected and the total protein concentration of each sample was determined using a PIERCE™ BCA protein assay kit. The supernatant was diluted to the same protein concentration with the RIPA buffer after the BCA assay. Samples of the same protein amount were mixed with 4× a lithium dodecyl sulfate (LDS) sample buffer and boiled at 95° C. for 5 min. The denatured samples were used for electrophoresis.
For Western blot, the same volume containing ˜50 μg protein for each sample was loaded onto 4-12% Bis-Tris protein gel. The gel was run at 80 V for 0.5 h and at 120 V for 1 h. When the electrophoresis was completed, an IBLOT™ 2 gel transfer device was used to transfer FAK and GAPDH proteins at 20 V for 7 min. All the membranes were blocked in 5% nonfat dry milk in a TBST buffer at RT for 1 h and then incubated with primary antibodies (anti-FAK and anti-GAPDH) in a TBST buffer containing 5% BSA at 4° C. overnight. The membranes were washed with the TBST buffer and then incubated with secondary antibodies (goat anti-rabbit IgG H&L for FAK and goat anti-mouse IgG H&L for GAPDH) at room temperature for 1 h. Blots were visualized using an IMAGEQUANT™ LAS-4000. The chemiluminescent signals from ECL™ Western blotting reagents were captured. The band integrated intensity from each 16-bit blot image was used for quantitation. The FAK/GAPDH signal ratios of each sample were normalized using DMSO as a control and the normalized data for each compound were used to obtain its half-maximal degradation concentration (DC50) and maximal degradation (Dmax).

Sequence of FAK (Q05397 whole entry): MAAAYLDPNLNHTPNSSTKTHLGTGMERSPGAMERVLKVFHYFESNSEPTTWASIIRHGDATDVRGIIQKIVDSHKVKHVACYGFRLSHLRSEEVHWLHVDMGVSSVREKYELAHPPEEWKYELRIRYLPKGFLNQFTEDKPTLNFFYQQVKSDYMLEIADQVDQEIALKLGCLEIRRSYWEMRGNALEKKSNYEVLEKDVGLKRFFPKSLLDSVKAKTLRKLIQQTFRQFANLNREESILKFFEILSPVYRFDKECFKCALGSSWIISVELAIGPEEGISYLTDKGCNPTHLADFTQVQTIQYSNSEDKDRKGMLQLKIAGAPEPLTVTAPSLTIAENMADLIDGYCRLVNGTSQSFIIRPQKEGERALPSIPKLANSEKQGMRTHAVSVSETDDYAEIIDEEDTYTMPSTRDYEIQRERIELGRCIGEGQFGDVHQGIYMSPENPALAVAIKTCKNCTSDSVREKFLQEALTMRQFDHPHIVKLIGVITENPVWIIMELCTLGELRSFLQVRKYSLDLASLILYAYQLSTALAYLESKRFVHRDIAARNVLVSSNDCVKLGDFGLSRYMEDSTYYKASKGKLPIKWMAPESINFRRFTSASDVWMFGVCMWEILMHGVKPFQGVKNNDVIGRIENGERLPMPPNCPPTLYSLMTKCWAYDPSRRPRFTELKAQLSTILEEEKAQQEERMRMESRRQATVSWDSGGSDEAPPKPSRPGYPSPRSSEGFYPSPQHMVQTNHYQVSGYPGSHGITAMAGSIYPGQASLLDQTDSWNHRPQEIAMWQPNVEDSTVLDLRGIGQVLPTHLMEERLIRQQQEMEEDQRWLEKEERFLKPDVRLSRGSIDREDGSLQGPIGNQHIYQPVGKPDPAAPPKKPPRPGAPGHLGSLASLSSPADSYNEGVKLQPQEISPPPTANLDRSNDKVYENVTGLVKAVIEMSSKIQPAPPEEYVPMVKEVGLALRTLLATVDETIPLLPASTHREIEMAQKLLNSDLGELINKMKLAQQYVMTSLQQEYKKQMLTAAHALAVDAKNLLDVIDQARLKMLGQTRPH

DC50 [nM]	Dmax [%]	Structure (SMILES)
0.7	87	CS(=O)(=O)c1cccc(CNc2nc(Nc3ccc(CNC4CCN(c5ccc6c(c5)C(=O)N(C5CCC(=O)NC5=O)C6=O)CC4)cc3)ncc2C(F)(F)F)c1 (stereo not shown) [Compound A24, 2-(2,6-Dioxopiperidin-3-yl)-5-(4-((4-((4-((3-(methylsulfonyl)benzyl)amino)-5-(trifluoromethyl)pyrimidin-2-yl)amino)benzyl)amino)piperidin-1-yl)isoindoline-1,3-dione]
0.13	97	CNC(=O)c1ccccc1Nc1nc(Nc2ccc(CNC3CCN(c4ccc5c(c4)C(=O)N(C4CCC(=O)NC4=O)C5=O)CC3)cc2)ncc1C(F)(F)F (stereo not shown) [Compound A25, 2-((2-((4-(((1-(2-(2,6-dioxopiperidin-3-yl)-1,3-dioxoisoindolin-5-yl)piperidin-4-yl)amino)methyl)phenyl)amino)-5-(trifluoromethyl)pyrimidin-4-yl)amino)-N-methylbenzamide]
1.3	94	O=C1CCC(N2C(=O)c3ccc(N4CCC(NCc5ccc(Nc6ncc(C(F)(F)F)c(Oc7cccc8c7C(=O)CC8)n6)cc5)CC4)cc3C2=O)C(=O)N1 (stereo not shown) [Compound A27, 2-(2,6-dioxopiperidin-3-yl)-5-(4-((4-((4-((3-oxo-2,3-dihydro-1H-inden-4-yl)oxy)-5-(trifluoromethyl)pyrimidin-2-yl)amino)benzyl)amino)piperidin-1-yl)isoindoline-1,3-dione]
0.87	91	CN1Cc2cccc(Oc3nc(Nc4ccc(CNC5CCN(c6ccc7c(c6)C(=O)N(C6CCC(=O)NC6=O)C7=O)CC5)cc4)ncc3C(F)(F)F)c2C1=O (stereo not shown) [Compound A28, 2-(2,6-dioxopiperidin-3-yl)-5-(4-((4-((4-((2-methyl-3-oxoisoindolin-4-yl)oxy)-5-(trifluoromethyl)pyrimidin-2-yl)amino)benzyl)amino)piperidin-1-yl)isoindoline-1,3-dione]
8.55	97	CNC(=O)c1ccccc1Nc1cc(Nc2ccc(CNC3CCN(c4ccc5c(c4)C(=O)N(C4CCC(=O)NC4=O)C5=O)CC3)c(F)c2)ncc1C(F)(F)F (stereo not shown) [Compound A29, 2-((2-((4-(((1-(2-(2,6-dioxopiperidin-3-yl)-1,3-dioxoisoindolin-5-yl)piperidin-4-yl)amino)-methyl)-3-fluorophenyl)amino)-5-(trifluoromethyl)pyridin-4-yl)amino)-N-methyl-benzamide]
1.3	96	CN(c1nccnc1CNc1nc(Nc2ccc(CNC3CCN(c4ccc5c(c4)C(=O)N(C4CCC(=O)NC4=O)C5=O)CC3)c(F)c2)ncc1C(F)(F)F)S(C)(=O)=O (stereo not shown) [Compound A30, N-(3-(((2-((4-(((1-(2-(2,6-dioxopiperidin-3-yl)-1,3-dioxoisoindolin-5-yl)piperidin-4-yl)amino)methyl)-3-fluorophenyl)amino)-5-(trifluoromethyl)pyrimidin-4-yl)amino)methyl)-pyrazin-2-yl)-N-methylmethanesulfonamide]
6.1	98	CN(c1cccc(CNc2cc(Nc3ccc(CNC4CCN(c5ccc6c(c5)C(=O)N(C5CCC(=O)NC5=O)C6=O)CC4)c(F)c3)ncc2C(F)(F)F)c1)S(C)(=O)=O (stereo not shown) [Compound A31, N-(3-(((2-((4-(((1-(2-(2,6-Dioxopiperidin-3-yl)-1,3-dioxoisoindolin-5-yl)-piperidin-4-yl)amino)methyl)-3-fluorophenyl)amino)-5-(trifluoromethyl)pyridin-4-yl)amino)-methyl)phenyl)-N-methylmethanesulfonamide]
0.79	91	CNC(=O)c1ccccc1Nc1cc(Nc2ccc(CN[C@@H]3CCN(c4ccc5c(c4)C(=O)N(C4CCC(=O)NC4=O)C5=O)C3)cc2)ncc1C(F)(F)F (stereo partly drawn) [Compound A32, 2-((2-((4-((((3R)-1-(2-(2,6-Dioxopiperidin-3-yl)-1,3-dioxoisoindolin-5-yl)-pyrrolidin-3-yl)amino)methyl)phenyl)amino)-5-(trifluoromethyl)pyridin-4-yl)amino)-N-methylbenzamide]
